Measured values taken from PubChem BioAssay (NCI).
Where “and” joins values, the source holds several entries; their conditions need not be identical. Equal values may be shown once.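 Tested at 5 concentrations; 48 h exposure; 96-well plates; endpoints linearly interpolated, else capped at highest concentration. At the GI50, growth is halved. TGI is the concentration that stops growth completely.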

Key:
Assay in all cases: DTP human tumour cell line panel, 48 h
786-0 renal = system: 786-0 renal
A549 NSCLC = system: A549 NSCLC
ACHN renal = system: ACHN renal
BT-549 breast = system: BT-549 breast
CAKI-1 renal = system: CAKI-1 renal
CCRF-CEM leukemia = system: CCRF-CEM leukemia
COLO 205 colon = system: COLO 205 colon
DU-145 prostate = system: DU-145 prostate
EKVX NSCLC = system: EKVX NSCLC
HCC-2998 colon = system: HCC-2998 colon
HCT-116 colon = system: HCT-116 colon
HCT-15 colon = system: HCT-15 colon
HL-60(TB) leukemia = system: HL-60(TB) leukemia
HOP-62 NSCLC = system: HOP-62 NSCLC
HOP-92 NSCLC = system: HOP-92 NSCLC
HS 578T breast = system: HS 578T breast
HT29 colon = system: HT29 colon
IGROV1 ovarian = system: IGROV1 ovarian
K-562 leukemia = system: K-562 leukemia
KM12 colon = system: KM12 colon
LOX IMVI melanoma = system: LOX IMVI melanoma
M14 melanoma = system: M14 melanoma
MALME-3M melanoma = system: MALME-3M melanoma
MCF7 breast = system: MCF7 breast
MDA-MB-231 breast = system: MDA-MB-231 breast
MDA-MB-435 = system: MDA-MB-435
MOLT-4 leukemia = system: MOLT-4 leukemia
NCI-H226 lung = system: NCI-H226 lung
NCI-H23 lung = system: NCI-H23 lung

For `Oc1c(I)cc(Cl)c2cccnc12`, the GI50 (786-0 renal) was 3.28 µM and 3.86 µM, the TGI (786-0 renal) was 12.6 µM and 17.6 µM and the GI50 (A549 NSCLC) was 3.96 µM and 8.89 µM. For the same compound, the TGI (A549 NSCLC) was greater than 100 µM, the GI50 (ACHN renal) was 3.52 µM and 3.5 µM and the TGI (ACHN renal) was 21.7 µM and 23.7 µM. For the same compound, the GI50 (BT-549 breast) was 3.27 µM and 23.1 µM, the TGI (BT-549 breast) was 8.99 µM and 65.3 µM and the GI50 (CAKI-1 renal) was 2.38 µM and 21.4 µM. For the same compound, the GI50 (CCRF-CEM leukemia) was 2.81 µM and 1.89 µM, the TGI (CCRF-CEM leukemia) was 9.89 µM and 4.71 µM and the GI50 (COLO 205 colon) was 5.21 µM and 5.72 µM. The TGI (COLO 205 colon) was 21.8 µM and 75.4 µM, the GI50 (DU-145 prostate) was 5.9 µM and 21.2 µM and the TGI (DU-145 prostate) was > 100 µM and 50.6 µM. The GI50 (EKVX NSCLC) was 2.89 µM and 25.4 µM, the TGI (EKVX NSCLC) was 18 µM and 57.9 µM and the GI50 (HCC-2998 colon) was 5.55 µM and 12.7 µM. The TGI (HCC-2998 colon) was 36 µM and 59.4 µM, the GI50 (HCT-116 colon) was 3.31 µM and 2.67 µM and the TGI (HCT-116 colon) was 11.1 µM and 9.05 µM. For the same compound, the GI50 (HCT-15 colon) was 5.48 µM and 3.82 µM, the TGI (HCT-15 colon) was > 100 µM and 38.5 µM and the GI50 (HL-60(TB) leukemia) was 2.77 µM. For the same compound, the TGI (HL-60(TB) leukemia) was 6.22 µM, the GI50 (HOP-62 NSCLC) was 4.02 µM and 4.07 µM and the TGI (HOP-62 NSCLC) was 28.5 µM and 20.1 µM. For the same compound, the TGI (HOP-92 NSCLC) was 17.9 µM and 50.3 µM, the GI50 (HS 578T breast) was 7.78 µM and 8.12 µM and the TGI (HS 578T breast) was > 100 µM and 57.7 µM. For the same compound, the GI50 (HT29 colon) was 11.3 µM and 6.1 µM, the TGI (HT29 colon) was greater than 100 µM and the GI50 (IGROV1 ovarian) was 3.91 µM and 13 µM. For the same compound, the TGI (IGROV1 ovarian) was 24.2 µM and 36.5 µM, the GI50 (K-562 leukemia) was 3.91 µM and the TGI (K-562 leukemia) was greater than 100 µM. The GI50 (KM12 colon) was 5.98 µM and 18.2 µM, the TGI (KM12 colon) was 49.9 µM and 47.7 µM and the GI50 (LOX IMVI melanoma) was 2.66 µM and 4.03 µM. The TGI (LOX IMVI melanoma) was 39.4 µM and 24.2 µM, the GI50 (M14 melanoma) was 2.08 µM and the TGI (M14 melanoma) was 4.37 µM. The GI50 (MALME-3M melanoma) was 3.97 µM and 16.5 µM, the TGI (MALME-3M melanoma) was 21.6 µM and 46.5 µM and the GI50 (MCF7 breast) was 3.24 µM and 6.36 µM. The TGI (MCF7 breast) was 41.3 µM and > 100 µM, the GI50 (MDA-MB-231 breast) was 3.54 µM and 2.7 µM and the TGI (MDA-MB-231 breast) was 35.2 µM and 12.8 µM. For the same compound, the GI50 (MDA-MB-435) was 4.2 µM and 32.8 µM, the TGI (MDA-MB-435) was greater than 100 µM and the GI50 (MOLT-4 leukemia) was 3.37 µM and 3.12 µM. The TGI (MOLT-4 leukemia) was 9.93 µM and 21.4 µM, the GI50 (NCI-H226 lung) was 3.02 µM and 2.66 µM and the TGI (NCI-H226 lung) was 20 µM and 8.8 µM. The GI50 (NCI-H23 lung) was 3.74 µM and 8.04 µM.
